For `COCCNc1nccc(Oc2ccc(NC(=O)c3cc(F)cc(N4CCCCC4)c3)c3ccccc23)n1`, the melting point was 87 to 88 °C. For `O=C1NC(=O)c2c1c(-c1ccccc1Cl)cc1c2ccn1CCN1CCCC1`, the melting point was 208 to 209 °C. For `O=c1cc(-c2ccccc2)oc(=O)[nH]1`, the melting point was > 210 °C. Work on `CC(=O)NC[C@H]1CN(c2ccc(C(=O)c3cnc4ccccn34)cc2)C(=O)O1` yielded a melting point of 218 to 220 °C. In the case of `CC(CSC(=S)c1ccc(F)cc1)C(=O)N1CCCC1C(=O)O` (stereo not drawn), the melting point is reported as 114 to 115 °C. Work on `COc1ccc(NC(=O)C(F)(F)F)cc1C12CC3CC(CC(C3)C1)C2` yielded a melting point of 166 to 167 °C. In the case of `CSc1ccc(-c2n[nH]c(=O)cc2-c2ccccc2)cc1`, the melting point is reported as 186 °C. `O=C(N[C@H]1CC[C@H](CCN2CCN(c3nccc4c3CCO4)CC2)CC1)c1ccc(F)cc1` showed a melting point of 210 °C. Compound `Cc1c(F)c(NCc2ccccc2)cc2oc(=O)[nH]c12` has a melting point of 204 to 206 °C. `CONC(=N)c1ccc(-c2ccc(-c3ccc(-c4ccc(C(=N)NOC)cc4)o3)o2)cc1` gave a melting point of 258 to 259 °C. In the case of `COc1ccc(C(=O)O)c(C)c1OC`, the melting point is reported as 179 to 180 °C. For `Nc1c2ccccc2nc2c(=O)[nH][nH]c(=O)c12`, the melting point was 167 to 168 °C. `CC(C)(C)Nc1cc(N2CCNCC2)nc(NC(C)(C)C)n1` showed a melting point of 142 to 145 °C. With `Cc1c(NC(=O)c2ccc(OCC3CCOC3)cc2)ccc2cc(CNCC(C)(C)C)cnc12` (stereo not drawn) the melting point was 129 °C. In the case of `CCOC(=O)C1=C(COCC(C)O)NC(C)=C(C(=O)OC)C1c1cccc(Cl)c1Cl` (stereo not drawn), the melting point is reported as 110 to 113 °C. Compound `COc1cc(OCCN2CCCC2)c2c(=O)[nH]c(-c3cc(C)nc(C)c3)nc2c1` has a melting point of 190 to 191 °C. `COc1ccc(C(=CC#N)c2cc(OC)c(OC)c(OC)c2)cc1N` showed a melting point of 97 to 99 °C. With `c1ccc(Nc2ncc3ccncc3n2)cc1` the melting point was 161 °C. `CC(C)(NC(=O)C(COCc1ccccc1)NC(=O)c1ccccc1)c1ccccc1` (stereo not drawn) showed a melting point of 88 to 90 °C. Compound `CCCCc1nc(Cl)c(COCc2ccccc2C(=O)O)n1Cc1ccc(-c2ccccc2-c2nnn[nH]2)cc1` has a melting point of 109 to 111 °C. Compound `Cn1cncc1C(O)(c1ccc(Cl)cc1)c1ccc2nc(-c3cccnc3)nc(-c3cccc(Cl)c3)c2c1` (stereo not drawn) has a melting point of 178 °C. `CCC1(CC)C(=O)Nc2ccc(-c3ccc(C#N)n3C)cc21` showed a melting point of 233 to 235 °C. `COC(=O)Nc1c(C(=O)OC)[nH]c2c(C)ccc(C)c12` showed a melting point of 184 to 185 °C. Work on `ON=CN1CCCC1C1=Nc2ccc(Cl)cc2C(c2ccccc2F)=NC1` (stereo not drawn) yielded a melting point of 175 to 178 °C. In the case of `Nc1nccc(-c2c[nH]c3nccc(C#Cc4ccccc4)c23)n1`, the melting point is reported as > 210 °C. With `CN(C)C(=O)c1ccc([N+](=O)[O-])cc1Cl` the melting point was 116 to 117 °C. In the case of `O=C1OCCN1c1ccc(OC(F)C(F)(F)F)cc1` (stereo not drawn), the melting point is reported as 74 to 76 °C. With `CCc1c(N)c(C(N)=O)nn1C[C@H]1CCCN1C` the melting point was 130 to 133 °C. For `OCC1OC(n2c(Cl)nc3cc(Cl)ccc32)C(O)C1O` (stereo not drawn), the melting point was 102 to 150 °C. Work on `O=c1cc(N2CCCC(CO)C2)oc2c1ccc1ccccc12` (stereo not drawn) yielded a melting point of 209 to 210 °C. `CCOC(=O)C1=C(COCc2nnn(CCNc3ccc(S(=O)(=O)N4CCOCC4)cn3)n2)NC(C)=C(C(=O)OC)C1c1cccc(Cl)c1Cl` (stereo not drawn) gave a melting point of 112 to 114 °C. With `FC(F)(F)c1cc(C#CCBr)cc(C(F)(F)F)c1` the melting point was 30 to 31 °C. Work on `CC1=C(C(=O)OC(C)(C)C)C(c2ccc(C)cc2C)C(C(=O)OC(C)(C)C)=C(C)N1` yielded a melting point of 197 to 198 °C. With `Nc1cccc2c1CC(O)CC2` (stereo not drawn) the melting point was 88 to 91 °C. `CN(C)c1cc[nH]c(=O)c1[N+](=O)[O-]` showed a melting point of 208 to 209 °C. With `Cn1cc(-c2cccc(N3Cc4cc(C(C)(C)C)ccc4C3=O)c2CO)nc(Nc2cccnc2)c1=O` the melting point was 149 to 150 °C. With `FC(F)(F)c1cccc(CSc2nnc(-c3ccc4c(c3)CCO4)o2)c1` the melting point was 88 to 90 °C. In the case of `CCCCCCCCCCCCCCCC(=O)OCC(CO)OC(=O)CCCCCCCCCCCCCCC` (stereo not drawn), the melting point is reported as 67 to 68 °C. Compound `O[C@@H](CNC1CN(C(c2ccccc2)c2ccccc2)C1)COc1ccc(OCc2ccccc2)cc1` has a melting point of 109 to 110 °C. Compound `O=c1c2c(c3cccnc3n1-c1ccccc1)OCCC2` has a melting point of 253 to 255 °C. Compound `CCCCc1c[nH]c2ccc(CO)cc2c1=O` has a melting point of 260 °C. With `NC(=S)NN=C(CCC(=O)N1CCCCC1)c1ccccc1` the melting point was 181 to 183 °C. `CC1CSC2=C(O1)c1cc(-c3ccccc3)ccc1C(=O)C2=O` (stereo not drawn) gave a melting point of 190 to 192 °C. Work on `CCOCC(O)(COCC)C(Cc1cc(OC)cc(OC)c1)NC(=O)OC(C)(C)C` (stereo not drawn) yielded a melting point of 73.5 to 75 °C. With `COc1cc2c(c3c1OC(C)(C)C3)C(C)=NC(C)(C)C2` the melting point was 112 to 113 °C. `CCOc1c(OC)cc(C(=O)NN=C2CCCC2=Cc2ccccc2)cc1OC` showed a melting point of 239 to 240 °C. In the case of `Cc1cc2ccccc2n1-c1ccnc2ccccc12`, the melting point is reported as 78 to 80 °C. Compound `O=[N+]([O-])c1ccc(Oc2ccc3c(c2)OCC(c2ccccc2)O3)nc1` (stereo not drawn) has a melting point of 163 to 170 °C. For `COC1=NC(=O)N(C2CCCCC2)S(=O)(=O)N1`, the melting point was 173 to 177 °C. In the case of `Brc1ccc2c(c1)CCOC2CCN1CCN(c2ccc(OCc3ccccc3)cc2)CC1` (stereo not drawn), the melting point is reported as 87 to 90 °C. Work on `CN(C(=O)OCC(Cl)(Cl)Cl)C1CN(C(=O)Nc2ccc(C(F)(F)F)cc2)N=C1c1ccc(Cl)cc1` (stereo not drawn) yielded a melting point of 169 to 170 °C. For `COc1ccc(-c2[nH]nc3c2C(=O)c2c(NC(=O)CN4CCC(N(C)C)CC4)cccc2-3)cc1`, the melting point was > 300 °C. In the case of `CCOC(=O)n1[nH]c(=O)c2c([N+](=O)[O-])cccc21`, the melting point is reported as 234 to 236 °C. `CC(C)CN(C)C1=NS(=O)(=O)c2cccc(Cl)c21` gave a melting point of 160 to 162 °C. In the case of `N#Cc1nn(-c2c(Cl)cc(C(F)(F)F)cc2Cl)c(N)c1-c1ccsc1`, the melting point is reported as 210 to 212 °C. In the case of `O=C1c2ccccc2OCN1CCO[N+](=O)[O-]`, the melting point is reported as 49 to 51 °C. In the case of `COC(=O)CC(=O)C=Cc1cc2ccccc2s1`, the melting point is reported as 105 to 107 °C. `CCCCCCCCCCCCCCOc1ccc(N)cc1` gave a melting point of 65 to 68 °C. For `Cc1cccc(-n2c(CCl)nc3ccccc3c2=O)c1`, the melting point was 183 to 185 °C. With `Cc1nn(C)c(O)c1C(=O)c1ccc(S(C)(=O)=O)c(-c2cnco2)c1Cl` the melting point was 236 to 241 °C. In the case of `CCCc1nc2c(N)nc3ccc(-c4ccc(CN)cc4)cc3c2s1`, the melting point is reported as 225 to 226 °C. For `CCOC(=O)c1ncn2c1CN=C(c1ccccc1F)c1cc(C#C[Si](C)(C)C)ccc1-2`, the melting point was 196 to 198 °C. With `C[C@H](NC(=O)OCc1ccccc1)C(=O)Nc1ccc(S(N)(=O)=O)cc1` the melting point was 245 to 246 °C. Work on `CSc1ccc2c(c1)C(O)Cc1ccc(C)cc1O2` (stereo not drawn) yielded a melting point of 67 to 69 °C. For `COC(=O)C(OC)(c1ccccc1)c1nc(OC)cc(OC)n1` (stereo not drawn), the melting point was 72 to 76 °C. `O=C(O)CCCCCOc1nc(-c2ccccc2)cc(-c2ccccc2)n1` gave a melting point of 127 to 129 °C. `FC1(F)C(Oc2cc(Cl)c(Cl)cc2Cl)=C(Oc2cc(Cl)c(Cl)cc2Cl)C(F)(F)C1(F)F` gave a melting point of 65 to 68 °C. `NC(=O)C[C@H](NC(=O)c1ccccn1)C(=O)O` gave a melting point of 171 to 172 °C. Work on `CCOCC(=O)Nc1ccc(OC(=O)NC)cc1C` yielded a melting point of 118 to 121 °C. Compound `CC(C)(OCc1cc(-c2ccc(Cl)cc2)no1)C(=O)O` has a melting point of 130 to 134 °C. With `CC1=NN(C)c2nc(C)c(CCCl)c(=O)n2C1` the melting point was 180 °C. Compound `CS(=O)(=O)Nc1ccc(-c2nc(C(F)(F)F)c[nH]2)cc1` has a melting point of 253 to 255 °C. Compound `CCCc1cccc2[nH]c(C(=O)OCC)cc(=O)c12` has a melting point of 153 to 154 °C.

Source: a melting point compilation (Tetko et al.; mined from patent text by program, amines drawn as free bases though some values may be those of a salt)
